# The OligoGym collection
# HELM strings list units from the 5' end as sugar, base in round brackets, then linkage (d deoxyribose, r ribose, m 2'-O-methyl, p phosphodiester). Strings are as the collection lists them; they lack the last nucleoside at the 3' end of the tested compound. [moe] = 2'-O-(2-methoxyethyl) (MOE); [sp] = phosphorothioate linkage; [m5C] = 5-methylcytosine
# Molecular target: UBE3A-ATS
# Experiment: mouse, dose not given
# Conditions: ASO
row,Substance,3 h FOB score
1,RNA1{[moe](G)[sp].[moe](A)p.[moe](T)p.[moe]([m5C])p.d(A)[sp].d([m5C])[sp].d(A)[sp].d(T)[sp].d(T)[sp].d(A)[sp].d([m5C])[sp].d([m5C])[sp].d([m5C])[sp].d(A)[sp].[moe](T)p.[moe]([m5C])p.[moe]([m5C])p.[moe](G)[sp].[moe](T)}$$$$ (last 3' nucleoside missing),0 score 0-7
2,RNA1{[moe](G)[sp].[moe](A)p.[moe]([m5C])p.[moe](T)p.[moe](A)p.d(T)[sp].d([m5C])[sp].d(T)[sp].d([m5C])[sp].d(A)[sp].d(G)[sp].d([m5C])[sp].d(A)[sp].d([m5C])[sp].d(T)[sp].[moe](A)p.[moe](G)p.[moe](G)[sp].[moe](G)}$$$$ (last 3' nucleoside missing),2 score 0-7
3,RNA1{[moe](G)[sp].[moe](A)p.[moe]([m5C])p.[moe](T)p.[moe](A)p.d([m5C])[sp].d(T)[sp].d(T)[sp].d([m5C])[sp].d(A)[sp].d(A)[sp].d([m5C])[sp].d([m5C])[sp].d(T)[sp].d(G)[sp].[moe](A)p.[moe](T)p.[moe](A)[sp].[moe]([m5C])}$$$$ (last 3' nucleoside missing),2 score 0-7
4,RNA1{[moe](G)[sp].[moe](G)p.[moe](A)p.[moe](A)p.[moe](G)p.d(G)[sp].d(A)[sp].d(A)[sp].d(A)[sp].d([m5C])[sp].d(A)[sp].d([m5C])[sp].d(A)[sp].d([m5C])[sp].d(A)[sp].[moe](T)p.[moe](A)p.[moe](A)[sp].[moe](T)}$$$$ (last 3' nucleoside missing),0.5 score 0-7
5,RNA1{[moe](G)[sp].[moe](G)p.[moe](A)p.[moe](G)p.[moe](A)p.d([m5C])[sp].d(A)[sp].d(A)[sp].d(T)[sp].d([m5C])[sp].d(T)[sp].d(A)[sp].d(G)[sp].d(T)[sp].d(T)[sp].[moe](A)p.[moe](G)p.[moe](A)[sp].[moe]([m5C])}$$$$ (last 3' nucleoside missing),4 score 0-7
6,RNA1{[moe](G)[sp].[moe](G)p.[moe](A)p.[moe](G)p.[moe](G)p.d(G)[sp].d(A)[sp].d(G)[sp].d(G)[sp].d(A)[sp].d(A)[sp].d(A)[sp].d(A)[sp].d(T)[sp].d(T)[sp].[moe](A)p.[moe](T)p.[moe](T)[sp].[moe](T)}$$$$ (last 3' nucleoside missing),0.5 score 0-7
7,RNA1{[moe](G)[sp].[moe](G)p.[moe](A)p.[moe](T)p.[moe](G)p.d(G)[sp].d(T)[sp].d(G)[sp].d(T)[sp].d(G)[sp].d(T)[sp].d(A)[sp].d(T)[sp].d(G)[sp].d(T)[sp].[moe](T)p.[moe](A)p.[moe](T)[sp].[moe](G)}$$$$ (last 3' nucleoside missing),4.7 score 0-7
8,RNA1{[moe](G)[sp].[moe](G)p.[moe](A)p.[moe](T)p.[moe](G)p.d(G)[sp].d(T)[sp].d(T)[sp].d(G)[sp].d(A)[sp].d([m5C])[sp].d([m5C])[sp].d(T)[sp].d([m5C])[sp].d(A)[sp].[moe](A)p.[moe](A)p.[moe](A)[sp].[moe](T)}$$$$ (last 3' nucleoside missing),3.8 score 0-7
9,RNA1{[moe](G)[sp].[moe](G)p.[moe](A)p.[moe](T)p.[moe](T)p.d(T)[sp].d(T)[sp].d(A)[sp].d(T)[sp].d(T)[sp].d(G)[sp].d(G)[sp].d(T)[sp].d([m5C])[sp].d(A)[sp].[moe](T)p.[moe]([m5C])p.[moe](T)[sp].[moe]([m5C])}$$$$ (last 3' nucleoside missing),5 score 0-7
10,RNA1{[moe](G)[sp].[moe](G)p.[moe](A)p.[moe](T)p.[moe](T)p.d([m5C])[sp].d(A)[sp].d(A)[sp].d(T)[sp].d(A)[sp].d(G)[sp].d(T)[sp].d(G)[sp].d(T)[sp].d(A)[sp].[moe](G)p.[moe](G)p.[moe](T)[sp].[moe](G)}$$$$ (last 3' nucleoside missing),7 score 0-7
11,RNA1{[moe](G)[sp].[moe](G)p.[moe](A)p.[moe]([m5C])p.[moe](A)p.d(G)[sp].d([m5C])[sp].d(T)[sp].d(G)[sp].d(T)[sp].d(G)[sp].d(T)[sp].d(G)[sp].d(G)[sp].d(A)[sp].[moe](G)p.[moe](G)p.[moe](G)[sp].[moe](A)}$$$$ (last 3' nucleoside missing),5.5 score 0-7
12,RNA1{[moe](G)[sp].[moe](G)p.[moe](A)p.[moe]([m5C])p.[moe](A)p.d([m5C])[sp].d(T)[sp].d([m5C])[sp].d(T)[sp].d([m5C])[sp].d(G)[sp].d([m5C])[sp].d(T)[sp].d(G)[sp].d(A)[sp].[moe](G)p.[moe](G)p.[moe](A)[sp].[moe]([m5C])}$$$$ (last 3' nucleoside missing),4.5 score 0-7
13,RNA1{[moe](G)[sp].[moe](G)p.[moe](A)p.[moe]([m5C])p.[moe](T)p.d(T)[sp].d(G)[sp].d(T)[sp].d([m5C])[sp].d(T)[sp].d(T)[sp].d(A)[sp].d(T)[sp].d(G)[sp].d(G)[sp].[moe]([m5C])p.[moe](T)p.[moe](G)[sp].[moe]([m5C])}$$$$ (last 3' nucleoside missing),1 score 0-7
14,RNA1{[moe](G)[sp].[moe](G)p.[moe](G)p.[moe](A)p.[moe](A)p.d(G)[sp].d(T)[sp].d([m5C])[sp].d(T)[sp].d(A)[sp].d(G)[sp].d(G)[sp].d(T)[sp].d([m5C])[sp].d(T)[sp].[moe]([m5C])p.[moe](A)p.[moe]([m5C])[sp].[moe](G)}$$$$ (last 3' nucleoside missing),3.2 score 0-7
15,RNA1{[moe](G)[sp].[moe](G)p.[moe](G)p.[moe](A)p.[moe](A)p.d([m5C])[sp].d(A)[sp].d([m5C])[sp].d(A)[sp].d([m5C])[sp].d([m5C])[sp].d(A)[sp].d(T)[sp].d(T)[sp].d([m5C])[sp].[moe](A)p.[moe](G)p.[moe]([m5C])[sp].[moe](A)}$$$$ (last 3' nucleoside missing),4.5 score 0-7
16,RNA1{[moe](G)[sp].[moe](G)p.[moe](G)p.[moe](A)p.[moe](G)p.d(G)[sp].d(A)[sp].d(G)[sp].d(T)[sp].d([m5C])[sp].d([m5C])[sp].d([m5C])[sp].d([m5C])[sp].d(A)[sp].d(G)[sp].[moe](A)p.[moe](T)p.[moe](A)[sp].[moe](A)}$$$$ (last 3' nucleoside missing),1.2 score 0-7
17,RNA1{[moe](G)[sp].[moe](G)p.[moe](G)p.[moe](A)p.[moe](T)p.d(A)[sp].d(T)[sp].d(A)[sp].d(T)[sp].d([m5C])[sp].d(A)[sp].d([m5C])[sp].d(T)[sp].d(T)[sp].d(G)[sp].[moe](G)p.[moe](A)p.[moe](G)[sp].[moe]([m5C])}$$$$ (last 3' nucleoside missing),4 score 0-7
18,RNA1{[moe](G)[sp].[moe](G)p.[moe](G)p.[moe](A)p.[moe](T)p.d(T)[sp].d(T)[sp].d(A)[sp].d([m5C])[sp].d([m5C])[sp].d([m5C])[sp].d(A)[sp].d(T)[sp].d(T)[sp].d(G)[sp].[moe]([m5C])p.[moe](A)p.[moe](A)[sp].[moe](G)}$$$$ (last 3' nucleoside missing),1 score 0-7
19,RNA1{[moe](G)[sp].[moe](G)p.[moe](G)p.[moe](T)p.[moe](A)p.d(G)[sp].d(A)[sp].d(A)[sp].d(G)[sp].d(A)[sp].d([m5C])[sp].d(T)[sp].d(A)[sp].d(G)[sp].d([m5C])[sp].[moe](A)p.[moe](T)p.[moe](A)[sp].[moe]([m5C])}$$$$ (last 3' nucleoside missing),5.8 score 0-7
